# How the values were obtained:
# [1] = Dissolution test, USP apparatus 2, paddle agitation at 50 rpm, Milli-Q water; format: physicochemical; conditions: 25° C., 0.1 mg/mL final
# Experimental: The dissolution medium was Milli-Q water maintained at a temperature of 25° C. The effervescent formulations were added directly to the water in the correct amount to achieve a final concentration of 0.1 mg/mL of florfenicol. Aliquots of the resulting solution were withdrawn and analyzed using either UV-VIS spectrophotometry or HPLC, the latter to exclude excipient contribution or degradation of florfenicol. For HPLC analysis, an organic/aqueous mobile phase was used for the separation on a C18, reverse phase column. Detection was performed by UV absorption spectrometry. The percent dissolved was calculated versus an external reference standard prepared at the nominal concentration of the analyte. Pure florfenicol was analyzed as a comparator to assess the effectiveness of the effervescent formulation. Referring now to the tables below, it can be seen that pure florfenicol was only 25% dissolved in 15 minutes and 43% dissolved within 60 minutes. […] Therefore, the effervescent formulation increased the florfenicol rate of dissolution and allowed a complete dissolution within 5 minutes of the addition to water.
# [2] = stated in background, no method; cited from earlier work
compound,measurement,setting,value
"CS(=O)(=O)c1ccc([C@@H](O)[C@@H](CF)NC(=O)C(Cl)Cl)cc1 (relative stereo) [Pure Florfenicol, [R-(R*, S*)]-2,2-Dichloro-N-[1-(fluoromethyl)-2-hydroxy-2-[4-[(methylsulfonyl)phenyl]-ethyl]acetamide]",% Drug in Solution,"[1]; Time 0, pure florfenicol in Milli-Q water",0%
same,% Drug in Solution,"[1]; Time 15 (minutes), Milli-Q water",25%
same,% Drug in Solution,"[1]; Time 30 (minutes), Milli-Q water",35%
same,% Drug in Solution,"[1]; Time 45 (minutes), Milli-Q water",36%
same,% Drug in Solution,"[1]; Time 60 (minutes), Milli-Q water",43%
same,water-solubility,[2],1230 µg/mL

# From patent US20080145317A1, “EFFERVESCENT FORMULATIONS OF FLORFENICOL FOR ADDITION IN DRINKING WATER SYSTEMS” (Schering Corporation, priority 2006, published 2008)
